Results reported in patent US7740831B2, “Compositions for potentiating glutathione” (Fancl Corporation, priority 2001, dated 2010).

Legend:
[1] = test system: CCD 1059 normal human skin fibroblasts; experiment: Measurement of glutathione activity (intracellular glutathione, method of Baker et al.); format: cell-based; settings: 24 hours
Experimental: The cells were then collected after being cultured for 24 hours. […] The collected cells were disrupted using sonication, and proteins were removed using metaphosphoric acid. Then, the solutions were again neutralized, to thereby produce samples used for glutathione measurement. The measurement of glutathione was performed using the method of Baker et al. (Anal. […] Then, the absorbance at 405 nm was measured, and this was taken as the glutathione concentration.

[2] = test system: CCD 1059 normal human skin fibroblasts; experiment: Effect of combined use of S-containing compound (cysteine) on intracellular glutathione; format: cell-based; settings: compound 2.5 μg/ml, control = cysteine only
Experimental: CCD 1059 normal human skin fibroblasts (1.5×10^5 cells) (manufactured by Dainippon Pharmaceutical Co., Ltd.) were inoculated in a petri dish (manufactured by Nunc) with a diameter of 6 cm, and the cells were cultured in Dulbecco's modified Eagle's medium (DMEM) containing 10% deactivated fetal bovine serum (hereafter abbreviated to “FBS”) for 3 days at 37° C. in the presence of 5% carbon dioxide gas. When the cells were 80% confluent, the medium was exchanged with DMEM containing 0.5% fetal bovine serum (hereafter abbreviated to “FBS” in some cases). After the cells were naturalized for 24 hours, the culture medium was removed by suction and exchanged with fresh DMEM containing 0.5% FBS and the test substances were dissolved in ethanol. […] The cells were then collected after being cultured for 24 hours. […] The collected cells were disrupted using sonication, and proteins were removed using metaphosphoric acid. Then, the solutions were again neutralized, to thereby produce samples used for glutathione measurement. […] To describe the method briefly, reduced nicotinamide adenine dinucleotide phosphate (NADPH), glutathione reductase, and 5,5′-dithiobis(2-nitrobenzoic acid) (DNTB) provided as a coloring agent were added to a 2-(N-morpholino)ethanesulfonate buffer (MES buffer), and the mixture was reacted with each measurement sample or a standard substance used to produce a calibration curve. Then, the absorbance at 405 nm was measured, and this was taken as the glutathione concentration.
However, since it was desired to add an S-containing compound at an arbitrary concentration, the culture medium used in the case of this addition was DMEM that contains no S-containing compound (i.e., a medium that was free of methionine, cysteine, or cystine). […] A comparison was made by calculation from the ratio relative to respective control groups in which only cysteine was added in the same amounts (groups in which only cysteine was added were taken as control groups in which the respective final concentrations of cysteine were 200 and 400 μM, and the activities of the respective test substance groups were evaluated as ratios relative to the control groups with the activities of the respective control groups taken as 1).

[3] = test system: CCD 1059 normal human skin fibroblasts; experiment: Effect of combined use of S-containing compound (cystine) on intracellular glutathione; format: cell-based; settings: compound 10 μg/ml, control = cystine only
Experimental: CCD 1059 normal human skin fibroblasts (1.5×10^5 cells) (manufactured by Dainippon Pharmaceutical Co., Ltd.) were inoculated in a petri dish (manufactured by Nunc) with a diameter of 6 cm, and the cells were cultured in Dulbecco's modified Eagle's medium (DMEM) containing 10% deactivated fetal bovine serum (hereafter abbreviated to “FBS”) for 3 days at 37° C. in the presence of 5% carbon dioxide gas. When the cells were 80% confluent, the medium was exchanged with DMEM containing 0.5% fetal bovine serum (hereafter abbreviated to “FBS” in some cases). […] Then, the absorbance at 405 nm was measured, and this was taken as the glutathione concentration.
However, since it was desired to add an S-containing compound at an arbitrary concentration, the culture medium used in the case of this addition was DMEM that contains no S-containing compound (i.e., a medium that was free of methionine, cysteine, and cystine). […] A comparison was made by calculation from the ratio relative to respective control groups in which only cystine was added (groups in which only cystine was added were taken as control groups, and the activities of the respective test substance groups were evaluated as ratios relative to the control groups with the activities of the respective control groups taken as 1).

[4] = test system: Clone 9 human liver cells; experiment: Effect on liver cell (intracellular glutathione); settings: compound 10 μg/ml, 24 hours
Experimental: Clone 9 human liver cells (8×10^6 cells) (manufactured by Dainippon Pharmaceutical Co., Ltd.) were inoculated in a petri dish (manufactured by Nunc) with a diameter of 6 cm, and the cells were cultured in DMEM containing 10% deactivated FBS for 3 days at 37° C. in the presence of 5% carbon dioxide gas. When the cells were 80% confluent, the medium was exchanged with DMEM containing 0.5% FBS. After the cells were naturalized for 24 hours, the culture medium was removed by suction and exchanged with fresh DMEM containing 0.5% FBS, and the test substances were dissolved in ethanol. […] 24 hours after the addition, the cells were collected, and glutathione measurements were performed by the method described in Example 5.

[5] = test system: CCD 1059 normal human skin fibroblasts; experiment: Resistance to active oxygen (singlet oxygen, rose bengal) cell damage after glutathione potentiation; format: cell-based; settings: compound 20 μg/ml, 24 h preincubation then removed; singlet oxygen exposure; untreated control 28
Experimental: Then, preincubation was performed for 24 hours at 37° C., so that the intracellular glutathione concentration was increased. […] The present test was performed in order to evaluate whether it was possible to alleviate the effects of the active oxygen that was generated by increasing the intracellular glutathione concentration, so that the plants, hydrolysates thereof, DPE, and DPE glycosides discovered by the present invention were completely removed after the preincubation.
After the cells were washed, rose bengal (which is a singlet oxygen generating agent) was dissolved in Hanks solution so as to have a final concentration of 50 μM, and was added to the cells. The cells were then irradiated for 10 minutes with visible light, so that the cells were exposed to singlet oxygen. The time for which the cells were immersed in Hanks solution and the time for which the cells were exposed to visible light were the same for all of the groups. After the exposure, the cells were again washed with Hanks solution, and the culture medium was exchanged with DMEM containing 10% FBS. After 3 days, the cells were counted by means of a Coulter counter, and the numbers of living cells were compared. In this comparison, an evaluation was performed with the number of cells in a non-exposed group that was not exposed to singlet oxygen taken as 100%. It is seen from Table 6 that the survival rates of the respective groups exposed to singlet oxygen were improved (compared to a group that was not treated with any test substance (control)) by the addition of the above-mentioned plant extracts, hydrolysates thereof, DPE, and DPE glycosides.

B16 melanoma cells = experiment: Skin whitening test (melanin suppression); format: cell-based, mouse; settings: 3 days; for Melanin suppression rate (compound): 20 μg/ml; for Melanin suppression rate (positive control): 3 mM
Experimental: Melanin suppressing activity was measured by the following test using the extracts of Lamium album, Euphrasia officinalis, Plantago psyllium, Plantago psyllium seeds, Olea europaea, Forsythia suspensa, Conandron ramondioides Siebold et Zucc, Osmanthus fragrans, Osmanthus asiaticus, Syringa vulgaris, Verbena officinalis L., and Momordica charantia L., and hydrolysates thereof obtained in Example 1, DPE obtained in Examples 3 and 4, and the DPE glycosides obtained in Example 5.
Cultured B16 melanoma cells derived from mouse provided as melanin producing cells were cultured in a minimum basic culture medium (MEM) to which FBS was added so as to have a final concentration of 10%. At a concentration of 3×10^3 cell/ml, those cells were inoculated in a 6-well plate (6 ml in each well), and were cultured in a CO2 incubator for 5 days, after which the culture medium was exchanged. […] Then, after further culturing for 3 days under the same conditions, the cells were washed and stripped by a scraper treatment. The cells were then solubilized with sodium dodecylsulfate (SDS), and the absorbance values at 475 nm and 260 nm were measured (these values were taken as S475 and S260). The melanin suppression rate was calculated using the following Equation 1, with the absorbance values at 475 nm and 260 nm obtained for cells cultured in a culture medium to which no test substances were added taken as C475 and C260, respectively. 3 mM vitamin C and 3 mM kojic acid were used as positive controls. As is shown in Tables 7 and 8, the production of melanin is suppressed by the addition of the test substances, so that the test substances show a skin whitening effect.

[6] = test system: cystine transporter (xCT); experiment: Cystine transporter (xCT) production ability by Western blotting; format: cell-based, human; settings: compound 20 μg/ml, 24 hours
Text: When the cells were 80% confluent, the medium was exchanged with DMEM containing 0.5% FBS.

[7] = test system: gamma-glutamyl cysteine synthetase mRNA; experiment: γ-glutamylcysteine synthetase production promoting activity by RT-PCR; format: cell-based, human; settings: compound 20 μg/ml, 8 hours
Experimental: After 8 hours, total RNA was collected by using TRIZOL reagent (Life Technologies Oriental, Inc.) following a protocol.
Gamma-glutamyl cysteine synthetase mRNA and G3PDH mRNA expression promoting activities were measured with RT-PCR high (Toyobo Co., Ltd.) using the collected total RNA. The G3PDH gene is known as a housekeeping gene and expresses in all cells constantly, so that the gene is widely used as a control gene. The following primers were used for PCR: 5′-TGA AAC TCT GCA AGA GAA GOG G-3′ (SEQ ID NO: 1) and 5′-GCT TCA TCT GGA AAG AGO AGG G -3′ (SEQ ID NO: 2) (gamma-glutamyl cysteine synthetase); and 5′-ACCACAGTCCATGCCATCAC-3′ (SEQ ID NO: 3) and 5′-TCCACCACCCTGTTGCTGTA-3′ (SEQ ID NO: 4) (G3PDH). […] Then, the intensity of staining was measured using image analysis software ImageMaster 1D (manufactured by Amersham Pharmacia Biotech Co.). The group in which no test substances were added (1% ethanol) was taken as a control, and the amount of expression was evaluated by a comparison of the amounts of expression in cases where test substances were added (with a value obtained by dividing the staining intensity of the γ-glutamylcysteine synthetase mRNA by the staining intensity of G3PDH taken as 1). […]

rats = experiment: Long-term oral administration to rats (toxicity); format: in vivo; settings: 100 days, 1,000 mg/kg per day
Text: DPE or a glycoside thereof has a low toxicity.

| Compound | Glutathione enhancing activity (compound), ratio to control ([1]; 2.5 μg/ml) | Glutathione enhancing activity (compound), ratio to control ([1]; 5 μg/ml) | Glutathione enhancing activity (compound), ratio to control ([1]; 10 μg/ml) | Glutathione enhancing activity (compound), ratio to control ([1]; 20 μg/ml) | Combined effect with cysteine, ratio to control, cysteine 200 μM added group [2] | Combined effect with cysteine, ratio to control, cysteine 400 μM added group [2] | Combined effect with cystine, ratio to control, cystine 200 μM added group [3] | Effect on hepatocyte (glutathione), ratio to control [4] | Survival rate (%: based on non-exposed group) [5] [%] | Melanin suppression rate (compound) (B16 melanoma cells) [%] | Amount of xCT expression (Relative to control) [6] | Gamma-glutamyl cysteine synthetase/G3PDH (Relative to control) [7] | Mortality (rats) | Melanin suppression rate (positive control) (B16 melanoma cells) [%] |
| --- | --- | --- | --- | --- | --- | --- | --- | --- | --- | --- | --- | --- | --- | --- |
| OCCc1ccc(O)c(O)c1 [DPE, 2-(3,4-dihydroxyphenyl)ethanol] | 1.36 | 1.85 | 2.33 | 2.74 | 1.25 | 1.89 | 3.42 | 1.16 | 61 | 52.3 | 4.8 | 8.2 | no cases of mortality |  |
| OC[C@H]1O[C@@H](OCCc2ccc(O)c(O)c2)[C@H](O)[C@@H](O)[C@@H]1O [DPE-1-O-β-D-Glucopyranocide, 2-(3,4-dihydroxyphenyl)ethanol-1-O-β-D-glucopyranocide] |  |  |  |  |  |  |  |  | 42 | 24.6 |  |  |  |  |
| OCCc1ccc(O)c(O[C@@H]2O[C@H](CO)[C@@H](O)[C@H](O)[C@H]2O)c1 [DPE-3′-O-β-D-Glucopyranocide, 2-(3,4-dihydroxyphenyl)ethanol-3′-O-β-D-glucopyranocide] | 1.15 | 1.19 | 1.25 | 1.73 | 1.26 | 1.52 | 1.56 | 1.26 | 46 | 32.3 | 1.3 | 3.8 |  |  |
| OCCc1ccc(O[C@@H]2O[C@H](CO)[C@@H](O)[C@H](O)[C@H]2O)c(O)c1 [DPE-4′-O-β-D-Glucopyranocide, 2-(3,4-dihydroxyphenyl)ethanol-4′-O-β-D-glucopyranocide] |  |  |  |  |  |  |  |  | 37 | 35.4 |  |  |  |  |
| O=c1cc(CO)occ1O [Kojic acid, reference compound] |  |  |  |  |  |  |  |  |  |  |  |  |  | 39.9 |
| O=C1O[C@H]([C@@H](O)CO)C(O)=C1O [Vitamin C, reference compound] |  |  |  |  |  |  |  |  |  |  |  |  |  | 23.0 |
